# Measured values: the supplement of paper PMC10307832
# Experiments:
# Assay in all cases: relative viability (nuclei count vs DMSO), 5 days (fraction); higher = more cells survive
# [1] = compound: CC1=C(C=C(C=C1)NC(=O)C2=CC(=CC=C2)C(C)(C)C#N)NC3=CC4=C(C=C3)N=CN(C4=O)C [AZ628] + O=C(c1cc(Cc2n[nH]c(=O)c3ccccc23)ccc1F)N1CCN(C(=O)C2CC2)CC1 [Olaparib] (partner 8 µM)
# How it was run: (§1)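 For relative viability, nuclei counts in treated wells were divided by those in vehicle wells. Lung cancer cell lines had been pin-tool dosed in 1536-well plates the day after seeding and cultured for 5 days, then fixed and stained in one step (final 0.05% Triton X-100, 1% formaldehyde, 1 ug/ml Hoechst) and imaged at 4×. Doses were one drug alone or a fixed anchor-drug dose plus five library-drug doses (not always all listed) in √10 steps, and values are duplicate-plate medians.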
# [2] = compound: C[As](C)SC[C@H](NC(=O)CC[C@H](N)C(=O)O)C(=O)NCC(=O)O [Darinaparsin] + CS(=O)(=O)N1CCN(Cc2cc3nc(-c4cccc5[nH]ncc45)nc(N4CCOCC4)c3s2)CC1 [Pictilisib] (partner 1 µM)
# How it was run: as §1
# [3] = compound: C[As](C)SC[C@H](NC(=O)CC[C@H](N)C(=O)O)C(=O)NCC(=O)O [Darinaparsin] + O=C(c1cc(Cc2n[nH]c(=O)c3ccccc23)ccc1F)N1CCN(C(=O)C2CC2)CC1 [Olaparib] (partner 8 µM)
# How it was run: as §1
# [4] = compound: CC1=C(C=C(C=C1)NC(=O)C2=CC(=CC=C2)C(C)(C)C#N)NC3=CC4=C(C=C3)N=CN(C4=O)C [AZ628] + COc1cccc2cc(-c3nc([C@H]4CC[C@H](C(=O)O)CC4)n4ncnc(N)c34)[nH]c12 [OSI-027] (partner 0.5 µM)
# How it was run: as §1
Cell Line,relative viability ([1]; first compound 0.08 µM),relative viability ([1]; first compound 0.253 µM),relative viability ([1]; first compound 0.8 µM),relative viability ([1]; first compound 2.53 µM),relative viability ([1]; first compound 8 µM),relative viability ([2]; first compound 0.08 µM),relative viability ([2]; first compound 0.8 µM),relative viability ([2]; first compound 2.53 µM),relative viability ([2]; first compound 8 µM),relative viability ([3]; first compound 0.08 µM),relative viability ([3]; first compound 0.8 µM),relative viability ([3]; first compound 2.53 µM),relative viability ([3]; first compound 8 µM),relative viability ([4]; first compound 0.08 µM),relative viability ([4]; first compound 0.253 µM),relative viability ([4]; first compound 0.8 µM),relative viability ([4]; first compound 2.53 µM),relative viability ([4]; first compound 8 µM)
Calu-6,0.595,0.491,0.496,0.41,0.16,1.2,0.801,0.924,0.988,0.592,0.59,0.594,0.556,–,–,–,–,–
ChaGo-K-1,0.456,0.389,0.422,0.452,0.453,0.947,0.693,0.732,0.662,0.469,0.417,0.385,0.401,0.575,0.525,0.496,0.556,0.388
EBC-1,0.609,0.615,0.737,0.684,0.314,0.393,0.359,0.433,0.288,0.811,0.731,0.603,0.511,–,–,–,–,–
IA-LM,1.03,0.815,0.846,0.875,0.363,0.414,0.408,0.949,0.313,0.93,0.936,0.982,0.884,–,–,–,–,–
NCI-H522,0.643,0.691,0.602,0.689,0.522,–,–,–,–,0.621,0.718,0.703,0.543,0.799,0.668,0.658,0.644,0.641
NCI-H1299,1.12,1.18,1.12,1.27,0.628,1.03,0.882,0.751,0.808,1.02,0.928,0.98,0.981,–,–,–,–,–
NCI-H1563,–,–,–,–,–,0.693,0.63,0.594,0.602,–,–,–,–,0.787,0.726,0.718,0.788,0.792
NCI-H1623,–,–,–,–,–,–,–,–,–,–,–,–,–,0.452,0.388,0.245,0.36,0.225
NCI-H1648,1.09,0.62,1.01,0.767,0.556,–,–,–,–,–,0.765,–,1.05,0.254,0.276,0.253,0.255,0.244
NCI-H1703,0.239,0.216,0.216,0.178,0.177,0.236,0.271,0.261,0.268,0.5,0.587,0.389,0.516,–,–,–,–,–
NCI-H2342,0.447,0.401,0.479,0.449,0.431,–,–,–,–,0.484,0.398,0.461,0.415,0.717,0.589,0.569,0.64,0.669
SW 900,1.04,0.878,1.02,0.951,0.683,–,–,–,–,0.837,–,0.85,0.773,0.61,0.566,0.501,0.345,0.474
